Measured values reported in patent US7169574B2, “Fluorescence detection of proteases or peptidases” (Institut National de la Sante et de la Recherche Medicale …, priority 2000, dated 2007).
Where “and” joins values, the source holds several entries; their conditions need not be identical. Identical values can stand only once. Numbered stars: 1 amine (or outer) side, 2 acyl side, 3 side chain; on linkers, the order of the positions; unused ones are H or OH. Square brackets hold non-standard residues; d marks the D form. Primed or numbered codes have the meaning given here. Ends that are not written are not given here. PyA″ = pyrenylalanine, O=C([C@H](Cc1ccc2ccc3cccc4ccc1c2c34)N[*:1])[*:2]; Phe(4-NO2) = N[C@@H](Cc1ccc([N+](=O)[O-])cc1)C(=O)O

Legend:
[1] = target: T1, ECE (Homo sapiens, UniProt P42892); experiment: ECE inhibition test, fluorescence reading on 96-well microplate (Examples 3 and 4); assay type: biochemical; conditions: for fluorescence intensity measured for each well: excitation 340 nm, emission 400 nm, gain 85, low value = strong inhibition, blank 67/68, control 1081/1094
T1 construct: made in house; host or cells: Cos-1 cells or CHO cells
T1 sequence (P42892 1-754 isoform P42892-3): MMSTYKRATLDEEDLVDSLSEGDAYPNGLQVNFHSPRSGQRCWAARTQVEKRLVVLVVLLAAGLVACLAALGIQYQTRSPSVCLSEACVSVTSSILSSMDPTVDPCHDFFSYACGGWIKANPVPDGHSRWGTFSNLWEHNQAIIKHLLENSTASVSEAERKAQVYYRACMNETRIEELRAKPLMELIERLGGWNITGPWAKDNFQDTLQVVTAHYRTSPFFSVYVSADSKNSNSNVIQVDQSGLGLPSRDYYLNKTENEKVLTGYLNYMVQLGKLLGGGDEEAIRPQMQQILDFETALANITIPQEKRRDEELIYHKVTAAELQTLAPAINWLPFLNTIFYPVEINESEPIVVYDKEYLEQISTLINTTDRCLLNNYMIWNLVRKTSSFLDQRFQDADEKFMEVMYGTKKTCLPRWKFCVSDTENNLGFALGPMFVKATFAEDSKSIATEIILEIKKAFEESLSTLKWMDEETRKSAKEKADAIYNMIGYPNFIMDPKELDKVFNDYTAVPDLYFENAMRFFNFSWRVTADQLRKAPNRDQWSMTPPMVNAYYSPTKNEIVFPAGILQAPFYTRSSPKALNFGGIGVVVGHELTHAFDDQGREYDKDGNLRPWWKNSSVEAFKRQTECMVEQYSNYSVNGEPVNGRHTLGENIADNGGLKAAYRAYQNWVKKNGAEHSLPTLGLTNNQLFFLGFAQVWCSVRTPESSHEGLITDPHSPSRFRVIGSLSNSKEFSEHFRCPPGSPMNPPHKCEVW
Experimental: 100 μl of 50 mM Tris-maleate buffer, pH 6.5, 20 μM or 5 μM of fluorescent peptide 1s or 2s and 10 μl of a solution of ECE diluted as a function of its purity and such that the cleavage of the fluorescent substrate remains less than 5%. […] The reaction is stopped in various ways, for example heating to 90° C., abrupt cooling to 4° C., adding an organic solvent such as dioxane to 20% of the final volume, and then the reading is performed using a fluorimeter (λex=340 nm; λem=400 nm) optionally coupled to the automated analysis system. […] The controls are performed in the presence of all the reagents but without ECE or with ECE inactivated beforehand by heating at 90° C. for 5 minutes.
The inhibitory behavior of several compounds was assessed by reproducing the protocol described in Example 2.
The specific conditions selected for the assays appear below:
Preincubation is carried out for 10 minutes at 37° C. The ECE substrate is then added at an amount of 10 μM. The entire mixture is incubated for between 20 minutes and 1 hour at 37C and the reaction is then stopped either by cooling or by adding dioxane (20 μl).
The reading on cytofluor is performed at 4° C. with the following specificities: excitation 340 nm, emission 400 nm and with a gain of 85.
The assays are performed on a 96-well microplate.
The compounds were tested at two concentrations.

[2] = Stability of the fluorescence of the metabolites formed by ECE; assay type: physicochemical
From the text: The measurement of this intensity, related to a standard curve established with mixtures of the substrate and of the fluorescent metabolite formed, therefore makes it possible either to evaluate the inhibitory capacity as percentage inhibition at a set given concentration of the product P, or to precisely determine its IC50 and then its KI using the Km of the substrate and several concentrations of the product P. The extreme sensitivity of the assay makes it possible to operate in very small volumes (100 μl) with concentrations of the order of 20 μM of the substrate 1s (that is to say 2 nmole corresponding to 4.43 μg per assay) or 5 μM of the substrate 2s. The test can therefore be very easily used in 96 wells plates or more, making it possible to automate it with automatic determination of the KI values when the reading fluorimeter is connected to a computer having suitable commercial software.

[3] = target: T2, endothelin-converting enzyme (ECE) (Homo sapiens, UniProt P42892); experiment: Fluorimetric ECE activity assay with fluorescent peptide substrates (96-well plates); assay type: biochemical; conditions: 50 mM Tris-maleate buffer, pH 6.5; calculated using the ENZFITTER program; read-out: Km (affinity constant of the enzyme for a substrate)
T2 construct: made in house; host or cells: Cos-1 cells or CHO cells
T2 sequence (P42892 1-754 isoform P42892-3): T1 sequence (P42892 1-754 isoform P42892-3)
Experimental: Various preparations containing ECE can be used, such as, for example, recombinant human ECE-1c expressed in Cos-1 cells (Shimada et al., J. Biol. Chem. (1994) 269, 18275–18278) or CHO cells (Xu et al. Cell (1994) 78, 473–485).
In all cases, the presence of the enzyme is tested by Western blotting using an antibody and its concentration is evaluated by comparison with the purified enzyme.
The ECE activity is determined in 96-well plates, generally under the following conditions:
100 μl of 50 mM Tris-maleate buffer, pH 6.5, 20 μM or 5 μM of fluorescent peptide 1s or 2s and 10 μl of a solution of ECE diluted as a function of its purity and such that the cleavage of the fluorescent substrate remains less than 5%. […] The reaction is stopped in various ways, for example heating to 90° C., abrupt cooling to 4° C., adding an organic solvent such as dioxane to 20% of the final volume, and then the reading is performed using a fluorimeter (λex=340 nm; λem=400 nm) optionally coupled to the automated analysis system. The use of a network fluorimeter considerably further increases the sensitivity of the assay by reading the fluorescence at 377 nm. […]
The KI values for the inhibitors can be determined automatically using the degradation percentages at various concentrations and comparison with a standard range. […]

[4] = target: T1, ECE; experiment: HPLC analysis of products formed on incubation with ECE; assay type: biochemical; conditions: single cleavage at the PyA-pNF peptide bond
Experimental: With regard to the products formed, the analysis thereof was carried out, in order to verify the substrate selectivity, by HPLC on a nucleosil C18 column, 7 μm/300 Å (4.6×70 mm), using a buffer B (0.038% of TFA in CH3CN/H2O, 9/1 by vol.) and a gradient of 40–47% of buffer B in 10 minutes (flow rate 1 ml/min).

fluorescence intensity measured for each well ([1]; compound at 5 × 10^−6 M)	fluorescence intensity measured for each well ([1]; compound at 10^−6 M)	Molecule	fluorescence of the metabolite over time [2]	further results
1095 and 1119	1117 and 1093	NCCCC[C@H](N[C@@H](CCc1ccccc1)C(=O)O)C(=O)N1CCC[C@H]1C(=O)O [L, lysinopril]	–	–
140 and 133	455 and 459	CC(C)C[C@H](NP(=O)(O)O[C@@H]1O[C@@H](C)[C@H](O)[C@@H](O)[C@H]1O)C(=O)N[C@@H](Cc1c[nH]c2ccccc12)C(=O)O [P, phosphoramidon]	–	inhibitory behavior on ECE ([1]; Table II, 10^−6 M and 5 × 10^−6 M): entirely verified
1043 and 1077	1124 and 1106	O=C(O)CC(=O)NC(CS)Cc1ccccc1 (centres unmarked) [R, retrothiorphan]	–	–
–	–	Ac-Arg-Pro-Lys-Gln-Glu-PyA [peptide 2m]	not modified over several hours	–
–	–	Ac-Ile-Ile-PyA (Ac-Ile-Ile-[PyA″]) [peptide 1m, fluorescent metabolite of 1s formed by ECE]	not modified over several hours	–
–	–	Ac-Ile-Ile-PyA-pNF-Asn-Thr-Pro-Glu-His-Val-Val-Pro-Tyr-Gly-Leu-Gly-Ser-COOH (Ac-II[PyA″][Phe(4-NO2)]NTPEHVVPYGLGS-OH; SMILES CC[C@H](C)[C@H](NC(C)=O)C(=O)N[C@H](C(=O)N[C@@H](Cc1ccc2ccc3cccc4ccc1c2c34)C(=O)N[C@@H](Cc1ccc([N+](=O)[O-])cc1)C(=O)N[C@@H](CC(N)=O)C(=O)N[C@H](C(=O)N1CCC[C@H]1C(=O)N[C@@H](CCC(=O)O)C(=O)N[C@@H](Cc1c[nH]cn1)C(=O)N[C@H](C(=O)N[C@H](C(=O)N1CCC[C@H]1C(=O)N[C@@H](Cc1ccc(O)cc1)C(=O)NCC(=O)N[C@@H](CC(C)C)C(=O)NCC(=O)N[C@@H](CO)C(=O)O)C(C)C)C(C)C)[C@@H](C)O)[C@@H](C)CC) [peptide 1s, fluorogenic ECE substrate]	–	Km [3]: 22.1 ± 0.9 µM; metabolites produced when incubated with ECE [4]: only two metabolites
–	–	Ac-Ser-Gly-PyA-Lys-Ala (Ac-SG[PyA″]KA) [peptide 3m, fluorescent metabolite of 3s formed by ECE]	not modified over several hours	–
–	–	Ac-Ser-Gly-PyA-Lys-Ala-Phe-Ala-pNF-Gly-Lys NH2 (Ac-SG[PyA″]KAFA[Phe(4-NO2)]GK-NH2; SMILES CC(=O)N[C@@H](CO)C(=O)NCC(=O)N[C@@H](Cc1ccc2ccc3cccc4ccc1c2c34)C(=O)N[C@@H](CCCCN)C(=O)N[C@@H](C)C(=O)N[C@@H](Cc1ccccc1)C(=O)N[C@@H](C)C(=O)N[C@@H](Cc1ccc([N+](=O)[O-])cc1)C(=O)NCC(=O)N[C@@H](CCCCN)C(N)=O) [peptide 3s, fluorogenic ECE substrate]	–	metabolites produced when incubated with ECE [4]: only two metabolites

Molecule	fluorescence intensity measured for each well ([1]; compound at 5 × 10^−6 M)	fluorescence intensity measured for each well ([1]; compound at 10^−6 M)	fluorescence of the metabolite over time [2]	further results
C[C@H](CS)C(=O)N1CCC[C@H]1C(=O)O [C, captopril]	1128 and 1121	1086 and 1089	–	–
O=C(O)CNC(=O)C(CS)Cc1ccccc1 (centres unmarked) [T, thiorphan]	1109 and 1121	1124 and 1127	–	–
